Several values for one entry are separate records, joined by “and”; a condition that tells them apart may be missing. Equal values may be shown once. Results filed as inconclusive are left out.
Test system: BDF1 mice, Friend leukemia sc, tumor weight T/C
Experiment: NCI In Vivo Anticancer Drug Screen. Data for tumor model Friend Virus Leukemia (Solid) (subcutaneous) in B6D2F1 (BDF1) mice
Settings: endpoint: mean tumor weight, higher = larger tumour
Procedure: The antitumor activity of compounds was measured in mice bearing transplantable tumors. Survival or tumor size were measured and the results are expressed as the measurement made in the treated group (T) divided by the measurement made in the vehicle treated control group (C). The tumor model used in this assay is Friend Virus Leukemia (Solid) (subcutaneous) in B6D2F1 (BDF1) mice

[1] = dose: 60.0 mg/kg/injection, schedule: Q01DX011 (ip), vehicle: carboxymethylcellulose (CMC)
[2] = dose: 100.0 mg/kg/injection, schedule: Q01DX011 (ip), vehicle: saline
[3] = dose: 0.5 mg/kg/injection, schedule: Q01DX011 (ip), vehicle: carboxymethylcellulose (CMC)
[4] = dose: 1.0 mg/kg/injection, schedule: Q01DX011 (ip), vehicle: carboxymethylcellulose (CMC)
[5] = dose: 2.0 mg/kg/injection, schedule: Q01DX011 (ip), vehicle: carboxymethylcellulose (CMC)
[6] = dose: 4.0 mg/kg/injection, schedule: Q01DX011 (ip), vehicle: carboxymethylcellulose (CMC)
[7] = dose: 6.0 mg/kg/injection, schedule: Q01DX011 (ip), vehicle: carboxymethylcellulose (CMC)
[8] = dose: 1.5 mg/kg/injection, schedule: Q01DX011 (ip), vehicle: carboxymethylcellulose (CMC)
[9] = dose: 50.0 mg/kg/injection, schedule: Q01DX011 (ip), vehicle: carboxymethylcellulose (CMC)
[10] = dose: 100.0 mg/kg/injection, schedule: Q01DX011 (ip), vehicle: carboxymethylcellulose (CMC)
[11] = dose: 3.0 mg/kg/injection, schedule: Q01DX011 (ip), vehicle: carboxymethylcellulose (CMC)

## CN(N=O)C(=O)Nc1c[nH]c(=O)[nH]c1=O
dose: 5.0 mg/kg/injection, schedule: Q01DX011 (ip), vehicle: carboxymethylcellulose (CMC)
  T/C: 108 % of control
dose: 10.0 mg/kg/injection, schedule: Q01DX011 (ip), vehicle: carboxymethylcellulose (CMC)
  T/C: 93 % of control
dose: 20.0 mg/kg/injection, schedule: Q01DX011 (ip), vehicle: carboxymethylcellulose (CMC)
  T/C: 91 % of control
dose: 40.0 mg/kg/injection, schedule: Q01DX011 (ip), vehicle: carboxymethylcellulose (CMC)
  T/C: 39 % of control
[1]
  T/C: 45 % of control
dose: 80.0 mg/kg/injection, schedule: Q01DX011 (ip), vehicle: carboxymethylcellulose (CMC)
  T/C: 23 % of control

## [I][Hg][CH2]C1OCCOC1[CH2][Hg][I] (centres undefined)
dose: 18.0 mg/kg/injection, schedule: Q01DX011 (ip), vehicle: carboxymethylcellulose (CMC)
  T/C: 66 % of control
dose: 37.0 mg/kg/injection, schedule: Q01DX011 (ip), vehicle: carboxymethylcellulose (CMC)
  T/C: 76 % of control
dose: 75.0 mg/kg/injection, schedule: Q01DX011 (ip), vehicle: carboxymethylcellulose (CMC)
  T/C: 46 % of control

## CC1CC(C)OS(=O)O1 (centres undefined)
dose: 44.0 mg/kg/injection, schedule: Q01DX011 (ip), vehicle: saline
  T/C: 70 % of control
[2]
  T/C: 71 % of control
dose: 150.0 mg/kg/injection, schedule: Q01DX011 (ip), vehicle: saline
  T/C: 85 % of control

## CC(CCC(C)OS(C)(=O)=O)OS(C)(=O)=O (centres undefined)
[3]
  T/C: 82 % of control
[4]
  T/C: 91 % of control
[5]
  T/C: 103 % of control
[6]
  T/C: 105 % of control
[7]
  T/C: 98 % of control
dose: 6.25 mg/kg/injection, schedule: Q01DX011 (ip), vehicle: carboxymethylcellulose (CMC)
  T/C: 56 % of control

## O=c1cnn(C2OC(CO)C(O)C2O)c(=O)[nH]1 (centres undefined)
dose: 62.5 mg/kg/injection, schedule: Q01DX011 (ip), vehicle: saline
  T/C: 160 % of control
dose: 125.0 mg/kg/injection, schedule: Q01DX011 (ip), vehicle: saline
  T/C: 170 % of control
dose: 500.0 mg/kg/injection, schedule: Q01DX011 (ip), vehicle: saline
  T/C: 105 % of control

## Nc1nc(N)c2[nH]cnc2n1
dose: 11.0 mg/kg/injection, schedule: Q01DX011 (ip), vehicle: carboxymethylcellulose (CMC)
  T/C: 109 % of control
dose: 22.0 mg/kg/injection, schedule: Q01DX011 (ip), vehicle: carboxymethylcellulose (CMC)
  T/C: 92 % of control
dose: 44.0 mg/kg/injection, schedule: Q01DX011 (ip), vehicle: carboxymethylcellulose (CMC)
  T/C: 87 % of control
dose: 88.0 mg/kg/injection, schedule: Q01DX011 (ip), vehicle: carboxymethylcellulose (CMC)
  T/C: 66 % of control and 85 % of control

## S=c1nc[nH]c2c1ncn2C1CCCO1 (centres undefined)
dose: 0.75 mg/kg/injection, schedule: Q01DX011 (ip), vehicle: carboxymethylcellulose (CMC)
  T/C: 79 % of control
[8]
  T/C: 65 % of control
[7]
  T/C: 54 % of control and 35 % of control
dose: 12.0 mg/kg/injection, schedule: Q01DX011 (ip), vehicle: carboxymethylcellulose (CMC)
  T/C: 27 % of control and 45 % of control
dose: 25.0 mg/kg/injection, schedule: Q01DX011 (ip), vehicle: carboxymethylcellulose (CMC)
  T/C: 9 % of control and 10 % of control
[9]
  T/C: 2 % of control and 20 % of control
[10]
  T/C: 1 % of control and 3 % of control

## Fc1ccc(CSc2ncnc3c2ncn3C2CCCCO2)cc1 (centres undefined)
dose: 90.0 mg/kg/injection, schedule: Q01DX011 (ip), vehicle: carboxymethylcellulose (CMC)
  T/C: 10 % of control
dose: 180.0 mg/kg/injection, schedule: Q01DX011 (ip), vehicle: carboxymethylcellulose (CMC)
  T/C: 1 % of control

## O=S(=O)(O)c1cccnc1
dose: 39.0 mg/kg/injection, schedule: Q01DX011 (ip), vehicle: carboxymethylcellulose (CMC)
  T/C: 86 % of control and 101 % of control
dose: 157.0 mg/kg/injection, schedule: Q01DX011 (ip), vehicle: carboxymethylcellulose (CMC)
  T/C: 98 % of control and 110 % of control

## CCC(=O)O[C@H]1CC[C@H]2[C@@H]3CCC4=CC(=O)CC[C@]4(C)[C@H]3CC[C@]12C
dose: 1.0 mg/kg/injection, schedule: Q01DX011 (sc), vehicle: steriod suspending solution
  T/C: 84 % of control
dose: 5.0 mg/kg/injection, schedule: Q01DX011 (sc), vehicle: steriod suspending solution
  T/C: 104 % of control
dose: 10.0 mg/kg/injection, schedule: Q01DX011 (sc), vehicle: steriod suspending solution
  T/C: 96 % of control
dose: 20.0 mg/kg/injection, schedule: Q01DX011 (sc), vehicle: steriod suspending solution
  T/C: 81 % of control
dose: 40.0 mg/kg/injection, schedule: Q01DX011 (sc), vehicle: steriod suspending solution
  T/C: 89 % of control
dose: 80.0 mg/kg/injection, schedule: Q01DX011 (sc), vehicle: steriod suspending solution
  T/C: 76 % of control
dose: 125.0 mg/kg/injection, schedule: Q01DX011 (sc), vehicle: steriod suspending solution
  T/C: 199 % of control
dose: 200.0 mg/kg/injection, schedule: Q01DX011 (sc), vehicle: steriod suspending solution
  T/C: 158 % of control
dose: 250.0 mg/kg/injection, schedule: Q01DX011 (sc), vehicle: steriod suspending solution
  T/C: 207 % of control
dose: 300.0 mg/kg/injection, schedule: Q01DX011 (sc), vehicle: steriod suspending solution
  T/C: 94 % of control
dose: 400.0 mg/kg/injection, schedule: Q01DX011 (sc), vehicle: steriod suspending solution
  T/C: 185 % of control and 201 % of control
dose: 500.0 mg/kg/injection, schedule: Q01DX011 (sc), vehicle: steriod suspending solution
  T/C: 171 % of control and 191 % of control and 257 % of control

## Nc1nc(=S)c2ncn(C3OC(CO)C(O)C3O)c2[nH]1 (centres undefined)
dose: 0.18 mg/kg/injection, schedule: Q01DX011 (ip), vehicle: carboxymethylcellulose (CMC)
  T/C: 74 % of control
dose: 0.37 mg/kg/injection, schedule: Q01DX011 (ip), vehicle: carboxymethylcellulose (CMC)
  T/C: 63 % of control
dose: 0.6 mg/kg/injection, schedule: Q01DX011 (ip), vehicle: carboxymethylcellulose (CMC)
  T/C: 53 % of control
[4]
  T/C: 36 % of control
[8]
  T/C: 31 % of control and 48 % of control

## Cn1cnc([N+](=O)[O-])c1Sc1nc(N)nc2c1ncn2C1OC(CO)C(O)C1O (centres undefined)
dose: 0.25 mg/kg/injection, schedule: Q01DX011 (ip), vehicle: carboxymethylcellulose (CMC)
  T/C: 73 % of control
[3]
  T/C: 61 % of control
[4]
  T/C: 31 % of control and 32 % of control
[11]
  T/C: 10 % of control and 24 % of control
dose: 7.0 mg/kg/injection, schedule: Q01DX011 (ip), vehicle: carboxymethylcellulose (CMC)
  T/C: 5 % of control

## Cc1nc(N2CC2)nc(N2CC2)c1[N+](=O)[O-]
[5]
  T/C: 70 % of control
[11]
  T/C: 39 % of control
[6]
  T/C: 41 % of control
[7]
  T/C: 63 % of control and 40 % of control

## Cc1cc2nc3c(=O)[nH]c(=O)nc-3n(CCOC(=O)CCC(=O)O)c2cc1C
dose: 42.0 mg/kg/injection, schedule: Q01DX011 (ip), vehicle: carboxymethylcellulose (CMC)
  T/C: 96 % of control
dose: 84.0 mg/kg/injection, schedule: Q01DX011 (ip), vehicle: carboxymethylcellulose (CMC)
  T/C: 108 % of control
dose: 168.0 mg/kg/injection, schedule: Q01DX011 (ip), vehicle: carboxymethylcellulose (CMC)
  T/C: 83 % of control
dose: 236.0 mg/kg/injection, schedule: Q01DX011 (ip), vehicle: carboxymethylcellulose (CMC)
  T/C: 59 % of control

## CN(C)C(=S)N=Nc1c(O)[nH]c2ccccc12
dose: 15.0 mg/kg/injection, schedule: Q01DX011 (ip), vehicle: saline
  T/C: 76 % of control
dose: 30.0 mg/kg/injection, schedule: Q01DX011 (ip), vehicle: saline
  T/C: 105 % of control
dose: 60.0 mg/kg/injection, schedule: Q01DX011 (ip), vehicle: saline
  T/C: 85 % of control
dose: 120.0 mg/kg/injection, schedule: Q01DX011 (ip), vehicle: saline
  T/C: 54 % of control

## NC(=O)N(CCCl)N=O
[4]
  T/C: 104 % of control
[5]
  T/C: 101 % of control
[6]
  T/C: 78 % of control

## Cc1ccc(N2CCN(CCCN3CCN(c4ccc(Cl)cc4)CC3)CC2)cc1
dose: 7.5 mg/kg/injection, schedule: Q01DX011 (ip), vehicle: carboxymethylcellulose (CMC)
  T/C: 80 % of control
dose: 15.0 mg/kg/injection, schedule: Q01DX011 (ip), vehicle: carboxymethylcellulose (CMC)
  T/C: 61 % of control
dose: 30.0 mg/kg/injection, schedule: Q01DX011 (ip), vehicle: carboxymethylcellulose (CMC)
  T/C: 55 % of control and 50 % of control
[1]
  T/C: 49 % of control

## O=C(O)c1ccc(-c2ccccc2)cc1
[9]
  T/C: 103 % of control

## CC(/C=N/N=C(N)N)=N\N=C(N)N
dose: 12.5 mg/kg/injection, schedule: Q01DX011 (ip), vehicle: saline
  T/C: 155 % of control
dose: 25.0 mg/kg/injection, schedule: Q01DX011 (ip), vehicle: saline
  T/C: 190 % of control
dose: 50.0 mg/kg/injection, schedule: Q01DX011 (ip), vehicle: saline
  T/C: 169 % of control

## CC(CCc1cccc2ccccc12)(C(=O)O)C(=O)O
[10]
  T/C: 92 % of control

## Nc1ccc(O)cc1
[2]
  T/C: 64 % of control
dose: 200.0 mg/kg/injection, schedule: Q01DX011 (ip), vehicle: saline
  T/C: 4 % of control

Source: PubChem BioAssay AID228 (DTP/NCI, 2004)
